Results as given in ChEMBL document CHEMBL5537171, “Design, Synthesis, and Biological Evaluation of Potent and Selective PROTAC Degraders of Oncogenic KRASG12D” (J Med Chem, 2024).
Active and inactive are the calls of the source. The calls are words filed in the database; no cut-off is given here.

Experiments:
[1] = target: von Hippel-Lindau disease tumor suppressor/GTPase KRas (Homo sapiens, UniProt P01116+P40337, G12D); assay: PROTAC activity at VHL/KRAS G12D mutant in human ASPC1 cells assessed as induction of protein degradation incubated for 24 hrs by Western blot analysis; assay type: cell-based
[2] = tested on: von Hippel-Lindau disease tumor suppressor/GTPase KRas (Homo sapiens), P01116+P40337 [G12D]; assay: PROTAC activity at VHL/KRAS G12D mutant in human ASPC1 cells assessed as induction of protein degradation incubated for 24 hrs by Western blot analysis relative to control; assay type: cell-based
GTPase KRas = GTPase KRas (Homo sapiens, UniProt P01116, G12D); assay: Inhibition of KRAS G12D mutant (unknown origin) preincubated for 15 mins followed by SOS1/EDA-GTP-DY-647P1 addition measured after 30 mins by HTRF assay
NCI-H358 = assay: Antiproliferative activity against human NCI-H358 cells harboring KRAS G12C mutant assessed as inhibition of cell viability incubated for 5 days by Cell Titer Glo assay; assay type: functional, cell-based; details: NCI-H358, 120 h
HPAF-II = assay: Antiproliferative activity against human HPAF-II cells harboring KRAS G12D mutant assessed as inhibition of cell viability incubated for 5 days by Cell Titer Glo assay; assay type: functional, cell-based; details: 120 h
SNU1 = assay: Antiproliferative activity against human SNU1 cells harboring KRAS G12D mutant assessed as inhibition of cell viability incubated for 5 days by Cell Titer Glo assay; assay type: functional, cell-based; details: SNU1, 120 h
ASPC1 [3] = assay: Antiproliferative activity against human ASPC1 cells harboring KRAS G12D mutant assessed as inhibition of cell viability incubated for 5 days by Cell Titer Glo assay; assay type: functional, cell-based; details: ASPC1, 120 h
[4] = tested on: von Hippel-Lindau disease tumor suppressor/GTPase KRas (Homo sapiens), P01116+P40337 [G12D]; assay: PROTAC activity at VHL/KRAS G12D mutant in human ASPC1 cells assessed as induction of protein degradation at 1 to 10 uM incubated for 7 hrs by Western blot analysis; assay type: cell-based; details: dose 1-10 µM
Homo sapiens = organism: Homo sapiens; assay: Binding affinity to His-tagged VHL/Elongin C/Elongin B/GST-tagged KRAS G12D mutant (unknown origin) incubated for 1 hr by HTRF assay
Panc 04.03 = assay: Antiproliferative activity against human Panc 04.03 cells harboring KRAS G12D mutant assessed as inhibition of cell viability incubated for 5 days by Cell Titer Glo assay; assay type: functional, cell-based; details: Panc 04.03, 120 h
AGS = assay: Antiproliferative activity against human AGS cells harboring KRAS G12D mutant assessed as inhibition of cell viability incubated for 5 days by Cell Titer Glo assay; assay type: functional, cell-based; details: 120 h
NCI-H1975 = assay: Antiproliferative activity against human NCI-H1975 cells harboring wild-type KRAS assessed as inhibition of cell viability incubated for 5 days by Cell Titer Glo assay; assay type: functional, cell-based; details: NCI-H1975, 120 h
[5] = Competitive binding affinity to His-tagged VHL/Elongin C/Elongin B (unknown origin) by FP assay; parameters: species or system Homo sapiens
[6] = Cooperativity factor alpha, ratio of IC50 for His-tagged VHL/Elongin C/Elongin B (unknown origin) to IC50 for His-tagged VHL/Elongin C/Elongin B/KRAS (unknown origin)
[7] = Drug uptake in human ASPC1 cells at 10 uM incubated for 1 hr by MS analysis; assay type: ADME, cell-based; details: aspc1, 1 h
[8] = Competitive binding affinity to His-tagged VHL/Elongin C/Elongin B/KRAS G12D mutant (unknown origin) by FP assay; parameters: species or system Homo sapiens
[9] = Selectivity index, ratio of IC50 for human ASPC1 cells assessed as inhibition of cell viability incubated for 6 hrs followed by compound washout measured after 114 hrs by Cell Titer Glo assay to IC50 for human ASPC1 cells assessed as inhibition of cell viability incubated for 120 hrs of continuous treatment by Cell Titer Glo assay; assay type: functional
ASPC1 [10] = assay: Antiproliferative activity against human ASPC1 cells assessed as inhibition of cell viability incubated for 6 hrs followed by compound washout measured after 114 hrs by Cell Titer Glo assay; assay type: functional, cell-based
[11] = tested on: von Hippel-Lindau disease tumor suppressor/GTPase KRas (Homo sapiens), P01116+P40337 [G12D]; assay: PROTAC activity at VHL/KRAS G12D mutant in human ASPC1 cells assessed as decrease in pERK level at 1 uM incubated for 6 hrs followed by compound washout measured for <4 hrs by Western blot analysis; assay type: cell-based
ASPC1 [12] = assay: Antiproliferative activity against human ASPC1 cells assessed as inhibition of cell viability incubated for 120 hrs of continuous treatment by Cell Titer Glo assay; assay type: functional, cell-based; details: ASPC1, 120 h

von Hippel-Lindau disease tumor suppressor/GTPase KRas (Homo sapiens), P01116+P40337 [G12D], sequence (P01116 whole entry G12D): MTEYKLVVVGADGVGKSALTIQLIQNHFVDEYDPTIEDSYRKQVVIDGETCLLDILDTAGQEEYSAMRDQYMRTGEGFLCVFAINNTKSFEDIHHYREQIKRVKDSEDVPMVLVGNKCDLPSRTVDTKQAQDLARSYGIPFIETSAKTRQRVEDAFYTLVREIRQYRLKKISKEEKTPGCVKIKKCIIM
von Hippel-Lindau disease tumor suppressor/GTPase KRas (Homo sapiens), P01116+P40337 [G12D], sequence (P40337 whole entry partner): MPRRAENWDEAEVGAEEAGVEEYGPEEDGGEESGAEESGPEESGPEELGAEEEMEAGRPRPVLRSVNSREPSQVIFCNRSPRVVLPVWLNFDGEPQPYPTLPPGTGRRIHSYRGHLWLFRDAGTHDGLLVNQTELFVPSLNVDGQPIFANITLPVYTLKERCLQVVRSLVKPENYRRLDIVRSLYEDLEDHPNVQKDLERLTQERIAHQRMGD
von Hippel-Lindau disease tumor suppressor/GTPase KRas, sequence (P01116 whole entry G12D, stated change not applied): as the sequence (P01116 whole entry G12D) above
von Hippel-Lindau disease tumor suppressor/GTPase KRas, sequence (P40337 whole entry, stated change not applied): as the sequence (P40337 whole entry partner) above
GTPase KRas, sequence (P01116 whole entry G12D): as the sequence (P01116 whole entry G12D) above

## CCc1cccc2cc(O)cc(-c3ncc4c(N5C[C@H]6CC[C@@H](C5)N6)nc(OC[C@@H]5CCCN5CCOCCC(=O)N[C@H](C(=O)N5C[C@H](O)C[C@H]5C(=O)N[C@@H](C)c5ccc(-c6scnc6C)cc5)C(C)(C)C)nc4c3F)c12
[1]; read-out: DC50
  DC50: 1.82 µM
[2]
  Emax: 89.5%

## CCc1cccc2cc(O)cc(-c3ncc4c(N5C[C@H]6CC[C@@H](C5)N6)nc(OC[C@@H]5CCCN5C)nc4c3F)c12
GTPase KRas
  IC50: 0.0058 µM

## CCc1cccc2cc(O)cc(-c3ncc4c(N5C[C@H]6CC[C@@H](C5)N6)nc(OC[C@@H]5CCCN5C5CC6(CCN(CC(=O)N[C@H](C(=O)N7C[C@H](O)C[C@H]7C(=O)N[C@@H](C)c7ccc(-c8scnc8C)cc7)C(C)(C)C)CC6)C5)nc4c3F)c12
[1]; read-out: DC50
  DC50: 0.134 µM
[2]
  Emax: 85.1%

## CCc1c(F)ccc2cc(O)cc(-c3ncc4c(N5C[C@H]6CC[C@@H](C5)N6)nc(OC[C@@H]5CCCN5CCCCOCC(=O)N[C@H](C(=O)N5C[C@@H](O)C[C@H]5C(=O)N[C@@H](C)c5ccc(-c6scnc6C)cc5)C(C)(C)C)nc4c3F)c12
NCI-H358
  IC50: > 10 µM
HPAF-II
  IC50: > 4 µM
SNU1
  IC50: 0.927 µM
ASPC1 [3]
  IC50: > 2 µM
[4]
  Activity: inactive
Homo sapiens
  Activity: inactive
Panc 04.03
  IC50: 3.37 µM
AGS
  IC50: 0.955 µM
NCI-H1975
  IC50: > 10 µM

## CCc1cccc2cc(O)cc(-c3ncc4c(N5C[C@H]6CC[C@@H](C5)N6)nc(OC[C@@H]5CCCN5C[C@H]5CC[C@H](C(=O)N[C@H](C(=O)N6C[C@H](O)C[C@H]6C(=O)N[C@@H](C)c6ccc(-c7scnc7C)cc6)C(C)(C)C)CC5)nc4c3F)c12
[1]
  DC50: Not Active
[2]
  Emax: inactive

## CCc1cccc2cc(O)cc(-c3ncc4c(N5C[C@H]6CC[C@@H](C5)N6)nc(OC[C@@H]5CCCN5CCCCCCCC(=O)N[C@H](C(=O)N5C[C@H](O)C[C@H]5C(=O)N[C@@H](C)c5ccc(-c6scnc6C)cc5)C(C)(C)C)nc4c3F)c12
[1]; read-out: DC50
  DC50: 2.26 µM
[2]
  Emax: 82.4%

## CCc1cccc2cc(O)cc(-c3ncc4c(N5C[C@H]6CC[C@@H](C5)N6)nc(OC[C@@H]5CCCN5CCCCOCC(=O)N[C@H](C(=O)N5C[C@H](O)C[C@H]5C(=O)N[C@@H](C)c5ccc(-c6scnc6C)cc5)C(C)(C)C)nc4c3F)c12
[5]
  IC50: 0.407 µM
[6]
  Ratio IC50: 21.5
[1]; read-out: DC50
  DC50: 0.164 µM
[7]
  Drug uptake: Active
[2]
  Emax: 99.4%
[8]
  IC50: 0.0189 µM

## CCc1c(F)ccc2cc(O)cc(-c3ncc4c(N5C[C@H]6CC[C@@H](C5)N6)nc(OC[C@@H]5CCCN5C)nc4c3F)c12
[9]
  Ratio IC50: 21.14
ASPC1 [10]
  IC50: 2.94 µM
[11]
  Activity: Active
NCI-H358
  IC50: > 10 µM
HPAF-II
  IC50: 0.165 µM
SNU1
  IC50: 0.0298 µM
ASPC1 [3]
  IC50: 0.154 µM
ASPC1 [12]
  IC50: 0.139 µM
Panc 04.03
  IC50: 0.112 µM
AGS
  IC50: 0.0201 µM
NCI-H1975
  IC50: > 10 µM

## CCc1cccc2cc(O)cc(-c3ncc4c(N5C[C@H]6CC[C@@H](C5)N6)nc(OC[C@@H]5CCCN5CCCCC(=O)N[C@H](C(=O)N5C[C@H](O)C[C@H]5C(=O)N[C@@H](C)c5ccc(-c6scnc6C)cc5)C(C)(C)C)nc4c3F)c12
[1]; read-out: DC50
  DC50: 1.01 µM
[2]
  Emax: 96.7%

## CCc1c(F)ccc2cc(O)cc(-c3ncc4c(N5C[C@H]6CC[C@@H](C5)N6)nc(OC[C@@H]5C[C@@H](F)CN5CCCCOCC(=O)N[C@H](C(=O)N5C[C@H](O)C[C@H]5C(=O)N[C@@H](C)c5ccc(-c6scnc6C)cc5)C(C)(C)C)nc4c3F)c12
[1]; read-out: DC50
  DC50: 0.0872 µM
[2]
  Emax: 96.2%

## C#Cc1c(F)ccc2cc(O)cc(-c3ncc4c(N5C[C@H]6CC[C@@H](C5)N6)nc(OC[C@@H]5CCCN5CCCCOCC(=O)N[C@H](C(=O)N5C[C@H](O)C[C@H]5C(=O)N[C@@H](C)c5ccc(-c6scnc6C)cc5)C(C)(C)C)nc4c3F)c12
[1]; read-out: DC50
  DC50: 0.116 µM
[2]
  Emax: 99.5%

## CCc1cccc2cc(O)cc(-c3ncc4c(N5C[C@H]6CC[C@@H](C5)N6)nc(OC[C@@H]5CCCN5CCCCOCCC(=O)N[C@H](C(=O)N5C[C@H](O)C[C@H]5C(=O)N[C@@H](C)c5ccc(-c6scnc6C)cc5)C(C)(C)C)nc4c3F)c12
[1]; read-out: DC50
  DC50: 1.31 µM
[2]
  Emax: 90.2%

## CCc1cccc2cc(O)cc(-c3ncc4c(N5C[C@H]6CC[C@@H](C5)N6)nc(OC[C@@H]5CCCN5CCCOCCC(=O)N[C@H](C(=O)N5C[C@H](O)C[C@H]5C(=O)N[C@@H](C)c5ccc(-c6scnc6C)cc5)C(C)(C)C)nc4c3F)c12
[5]
  IC50: 0.908 µM
[6]
  Ratio IC50: 35.7
[1]; read-out: DC50
  DC50: 0.132 µM
[2]
  Emax: 98.1%
[8]
  IC50: 0.0254 µM

## CC(=O)N[C@H](C(=O)N1C[C@H](O)C[C@H]1C(=O)N[C@@H](C)c1ccc(-c2scnc2C)cc1)C(C)(C)C
[5]
  IC50: 0.343 µM
[6]
  Ratio IC50: 0.9
[8]
  IC50: 0.38 µM

## CCc1cccc2cc(O)cc(-c3ncc4c(N5C[C@H]6CC[C@@H](C5)N6)nc(OC[C@@H]5CCCN5CCCCCCCCC(=O)N[C@H](C(=O)N5C[C@H](O)C[C@H]5C(=O)N[C@@H](C)c5ccc(-c6scnc6C)cc5)C(C)(C)C)nc4c3F)c12
[1]; read-out: DC50
  DC50: 0.165 µM
[2]
  Emax: 89.3%

## CCc1cccc2cc(O)cc(-c3ncc4c(N5C[C@H]6CC[C@@H](C5)N6)nc(OC[C@@H]5CCCN5CCCCCC(=O)N[C@H](C(=O)N5C[C@H](O)C[C@H]5C(=O)N[C@@H](C)c5ccc(-c6scnc6C)cc5)C(C)(C)C)nc4c3F)c12
[1]; read-out: DC50
  DC50: 1.2 µM
[2]
  Emax: 89.7%

## CCc1cccc2cc(O)cc(-c3ncc4c(N5C[C@H]6CC[C@@H](C5)N6)nc(OC[C@@H]5CCCN5CCCCCCC(=O)N[C@H](C(=O)N5C[C@H](O)C[C@H]5C(=O)N[C@@H](C)c5ccc(-c6scnc6C)cc5)C(C)(C)C)nc4c3F)c12
[1]; read-out: DC50
  DC50: 0.572 µM
[2]
  Emax: 98.9%

## CCc1cccc2cc(O)cc(-c3ncc4c(N5C[C@H]6CC[C@@H](C5)N6)nc(OC[C@@H]5CCCN5CC5CCN(CCC(=O)N[C@H](C(=O)N6C[C@H](O)C[C@H]6C(=O)N[C@@H](C)c6ccc(-c7scnc7C)cc6)C(C)(C)C)CC5)nc4c3F)c12
[5]
  IC50: 2.16 µM
[6]
  Ratio IC50: 26.9
[2]
  Emax: 29.8%
[8]
  IC50: 0.0804 µM

## CCc1cccc2cc(O)cc(-c3ncc4c(N5C[C@H]6CC[C@@H](C5)N6)nc(OC[C@@H]5CCCN5CCC(=O)NCCC(=O)N[C@H](C(=O)N5C[C@H](O)C[C@H]5C(=O)N[C@@H](C)c5ccc(-c6scnc6C)cc5)C(C)(C)C)nc4c3F)c12
[5]
  IC50: 2.27 µM
[6]
  Ratio IC50: 76.2
[1]; read-out: DC50
  DC50: 3.81 µM
[7]
  Drug uptake: Active
[2]
  Emax: 83.6%
[8]
  IC50: 0.0298 µM

## CCc1cccc2cc(O)cc(-c3ncc4c(N5C[C@H]6CC[C@@H](C5)N6)nc(OC[C@@H]5CCCN5C5CCC6(CC5)CCN(CC(=O)N[C@H](C(=O)N5C[C@H](O)C[C@H]5C(=O)N[C@@H](C)c5ccc(-c7scnc7C)cc5)C(C)(C)C)CC6)nc4c3F)c12
[2]
  Emax: 53.9%
